The values that follow come from ChEMBL document CHEMBL4316592, “Synthesis of new derivatives of boehmeriasin A and their biological evaluation in liver cancer” (Eur J Med Chem, 2019).

Activity calls are given as the source filed them. The calls are words filed in the database; no cut-off is given here.

The target of the assay is RAC-alpha serine/threonine-protein kinase (Homo sapiens) (UniProt P31749). Description: Inhibition of Akt phosphorylation in human HuH7 cells at 1 uM after 72 hrs by Western blot analysis. It counts as cell-based.
Chain of RAC-alpha serine/threonine-protein kinase (Homo sapiens) (P31749 whole entry): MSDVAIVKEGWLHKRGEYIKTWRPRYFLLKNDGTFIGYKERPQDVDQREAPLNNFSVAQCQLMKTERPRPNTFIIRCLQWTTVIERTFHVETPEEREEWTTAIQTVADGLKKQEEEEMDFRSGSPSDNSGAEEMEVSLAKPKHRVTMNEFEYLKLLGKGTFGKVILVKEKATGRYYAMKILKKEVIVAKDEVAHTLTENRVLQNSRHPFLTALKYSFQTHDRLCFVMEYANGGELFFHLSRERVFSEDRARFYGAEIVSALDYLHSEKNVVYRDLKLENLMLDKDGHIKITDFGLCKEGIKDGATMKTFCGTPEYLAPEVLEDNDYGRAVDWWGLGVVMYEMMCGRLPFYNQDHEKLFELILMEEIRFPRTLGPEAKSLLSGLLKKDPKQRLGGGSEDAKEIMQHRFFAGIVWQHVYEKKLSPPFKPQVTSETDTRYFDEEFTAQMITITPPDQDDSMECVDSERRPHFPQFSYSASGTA

Consider `COc1ccc2c3c(c4cc(OC)c(OC)cc4c2c1)CN1CCCCC1C3O` (racemic), for which the inhibition result was “Active”.
